BindingDB's records for PubMed 35202969 (Maharishi Markandeshwar (Deemed To Be University), 2022)

Molecular target: CYP3A4 (Homo sapiens, UniProt P08684)
Test: Inhibition of CYP3A4 in human liver microsomes using midazolam as substrate
Settings: probe midazolam

Sequence of CYP3A4 (P08684 whole entry): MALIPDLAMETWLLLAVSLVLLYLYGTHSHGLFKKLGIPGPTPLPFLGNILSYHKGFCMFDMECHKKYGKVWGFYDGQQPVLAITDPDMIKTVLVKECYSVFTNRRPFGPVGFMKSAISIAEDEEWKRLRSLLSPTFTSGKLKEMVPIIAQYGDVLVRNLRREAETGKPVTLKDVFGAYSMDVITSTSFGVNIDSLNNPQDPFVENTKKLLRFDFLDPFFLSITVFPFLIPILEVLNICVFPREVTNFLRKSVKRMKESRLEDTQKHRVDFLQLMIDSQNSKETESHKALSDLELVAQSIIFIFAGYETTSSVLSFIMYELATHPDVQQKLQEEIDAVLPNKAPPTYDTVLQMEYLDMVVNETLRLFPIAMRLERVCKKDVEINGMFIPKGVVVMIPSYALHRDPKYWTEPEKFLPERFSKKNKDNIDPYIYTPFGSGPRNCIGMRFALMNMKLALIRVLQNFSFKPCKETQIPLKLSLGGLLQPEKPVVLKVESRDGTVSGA

Q: Which Ki does the source give for COc1c(N2CC[C@@H](C3(N)CC3)C2)ccc2c(=O)c(C(=O)O)cn([C@@H]3C[C@@H]3F)c12 [DX-619] here?
A: 67.9 µM
